Measurements reported in ChEMBL document CHEMBL3425460, “Stereoselective synthesis of 11-phenylundeca-5Z,9Z-dienoic acid and investigation of its human topoisomerase I and IIα inhibitory activity” (Bioorg Med Chem Lett, 2015).
Calls of active or inactive are those of the source. The calls are words filed in the database; no cut-off is given here.

Key:
[1] = molecular target: T1, DNA topoisomerase 1 (Homo sapiens, UniProt P11387); test: Inhibition of human topoisomerase 1-mediated DNA cleavage assessed as accumulation of nicked DNA by ethidium bromide staining based electrophoregram
T1 sequence (P11387 whole entry): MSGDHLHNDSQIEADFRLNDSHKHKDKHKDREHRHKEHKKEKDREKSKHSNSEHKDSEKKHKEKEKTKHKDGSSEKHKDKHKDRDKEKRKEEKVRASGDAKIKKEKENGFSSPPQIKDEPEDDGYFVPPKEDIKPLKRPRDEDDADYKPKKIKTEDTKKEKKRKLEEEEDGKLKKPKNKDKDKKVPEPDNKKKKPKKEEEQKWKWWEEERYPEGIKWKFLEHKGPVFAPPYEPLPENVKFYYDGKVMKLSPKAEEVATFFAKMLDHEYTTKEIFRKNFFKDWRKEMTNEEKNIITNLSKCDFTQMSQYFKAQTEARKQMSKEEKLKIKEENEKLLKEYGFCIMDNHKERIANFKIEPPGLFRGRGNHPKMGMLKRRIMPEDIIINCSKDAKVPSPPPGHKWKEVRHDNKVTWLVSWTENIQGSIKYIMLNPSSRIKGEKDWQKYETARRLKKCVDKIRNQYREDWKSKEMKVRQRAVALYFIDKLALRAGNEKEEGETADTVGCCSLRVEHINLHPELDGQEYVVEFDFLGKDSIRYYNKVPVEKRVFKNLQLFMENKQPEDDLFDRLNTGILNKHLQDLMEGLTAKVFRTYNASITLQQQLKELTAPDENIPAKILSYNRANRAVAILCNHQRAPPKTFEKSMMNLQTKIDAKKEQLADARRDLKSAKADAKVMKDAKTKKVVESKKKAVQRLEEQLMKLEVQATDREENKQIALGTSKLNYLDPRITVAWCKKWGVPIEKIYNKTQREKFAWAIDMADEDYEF

[2] = Induction of pHOT1 DNA (unknown origin) cleavage assessed as conversion of supercoiled DNA to linear and nicked form of DNA at 5 to 500 uM after 30 mins by gel electrophoretic mobility assay
[3] = molecular target: DNA topoisomerase 2-alpha (Homo sapiens) (UniProt P11388); test: Inhibition of human topoisomerase 2 alpha-mediated DNA cleavage assessed as linear form of plasmid by electrophoregram
[4] = molecular target: T2, DNA topoisomerase 1 (Homo sapiens) (UniProt P11387); conditions: 0.06 to 10 uM
T2 sequence (whole entry): T1 sequence (P11387 whole entry)
Description: Inhibition of human topoisomerase 1-mediated DNA cleavage assessed as accumulation of nicked DNA at 0.06 to 10 uM by ethidium bromide staining based electrophoregram

[5] = molecular target: DNA topoisomerase 2-alpha (Homo sapiens) (UniProt P11388); test: Inhibition of human topoisomerase 2 alpha-mediated DNA cleavage assessed as accumulation of nicked DNA at 0.06 to 10 uM by electrophoregram
[6] = molecular target: DNA topoisomerase 2-alpha (Homo sapiens) (UniProt P11388); test: Inhibition of human topoisomerase 2 alpha-mediated DNA cleavage assessed as accumulation of nicked DNA at 0.06 to 10 uM by ethidium bromide staining based electrophoregram

Sequence of DNA topoisomerase 2-alpha (Homo sapiens) (P11388 whole entry): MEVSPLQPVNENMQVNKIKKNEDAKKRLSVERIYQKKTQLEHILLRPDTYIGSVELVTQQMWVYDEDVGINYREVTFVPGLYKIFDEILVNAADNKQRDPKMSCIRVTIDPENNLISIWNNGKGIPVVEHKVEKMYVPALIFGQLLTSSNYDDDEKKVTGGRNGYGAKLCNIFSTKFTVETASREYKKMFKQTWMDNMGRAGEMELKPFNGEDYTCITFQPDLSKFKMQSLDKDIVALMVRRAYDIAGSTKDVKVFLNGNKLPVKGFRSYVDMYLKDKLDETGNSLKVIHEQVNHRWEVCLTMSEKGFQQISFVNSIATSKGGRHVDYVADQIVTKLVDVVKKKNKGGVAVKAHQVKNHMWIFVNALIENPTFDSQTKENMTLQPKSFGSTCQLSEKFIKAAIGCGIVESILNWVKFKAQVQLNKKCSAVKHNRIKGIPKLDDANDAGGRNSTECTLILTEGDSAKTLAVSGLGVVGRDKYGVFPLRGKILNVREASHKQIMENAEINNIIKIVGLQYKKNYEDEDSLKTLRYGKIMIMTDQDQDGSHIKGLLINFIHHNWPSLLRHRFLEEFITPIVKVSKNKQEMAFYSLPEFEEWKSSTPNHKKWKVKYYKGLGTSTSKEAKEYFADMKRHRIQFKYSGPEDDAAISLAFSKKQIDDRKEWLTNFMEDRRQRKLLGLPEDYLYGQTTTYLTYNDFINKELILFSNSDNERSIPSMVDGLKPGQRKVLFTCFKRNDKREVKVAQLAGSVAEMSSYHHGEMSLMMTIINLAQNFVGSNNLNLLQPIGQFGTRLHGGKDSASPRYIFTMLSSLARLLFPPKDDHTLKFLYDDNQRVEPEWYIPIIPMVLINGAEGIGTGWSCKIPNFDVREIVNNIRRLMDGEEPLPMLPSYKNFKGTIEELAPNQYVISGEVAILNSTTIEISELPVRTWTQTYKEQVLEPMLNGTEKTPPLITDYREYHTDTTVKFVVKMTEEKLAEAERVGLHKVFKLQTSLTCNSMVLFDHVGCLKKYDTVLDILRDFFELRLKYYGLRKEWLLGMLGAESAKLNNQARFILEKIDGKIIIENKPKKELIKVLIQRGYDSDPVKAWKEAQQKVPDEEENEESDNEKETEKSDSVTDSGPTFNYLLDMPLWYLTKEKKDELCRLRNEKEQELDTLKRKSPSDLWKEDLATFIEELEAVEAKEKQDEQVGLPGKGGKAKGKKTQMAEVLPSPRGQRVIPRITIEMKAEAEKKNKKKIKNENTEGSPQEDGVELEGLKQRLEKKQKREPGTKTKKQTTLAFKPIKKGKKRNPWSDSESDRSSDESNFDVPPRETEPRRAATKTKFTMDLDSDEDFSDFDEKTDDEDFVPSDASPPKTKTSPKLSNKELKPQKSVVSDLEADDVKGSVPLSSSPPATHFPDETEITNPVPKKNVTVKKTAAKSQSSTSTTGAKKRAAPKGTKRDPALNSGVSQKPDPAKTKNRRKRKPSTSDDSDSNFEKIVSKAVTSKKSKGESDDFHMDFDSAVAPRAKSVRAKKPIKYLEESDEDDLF

Row | SMILES | IC50 [1] | Activity [2] | inhibition [3] | inhibition [4] | inhibition [5] | inhibition [6]
1 | CCCCCCCCCC/C=C\CC/C=C\CCCC(=O)O | 810 nM | – | – | – | – | –
2 | O=C(O)CCC/C=C\CC/C=C\Cc1ccccc1 | 670 nM | Active | Dose-dependent effect | Active | Active | Active
